Patent US20230085307A1, “PYRIDAZINONE COMPOUND AND HERBICIDE” (NISSAN CHEMICAL CORPORATION, priority 2019, published 2023)

Assays:
[1] = test system: blackgrass; assay: Test Example 4: herbicidal effect by soil treatment (Table 19, symbol J); type: in vivo, blackgrass (Alopecurus myosuroides); conditions: for herbicidal effect on J: blackgrass: amount of applied herbicide 320 g/ha
In short: (§1)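 Seeds were sown in sterilized diluvial soil and covered with about 1.5 cm of soil. An emulsion formulation diluted with water to a predetermined herbicide amount was sprayed evenly onto the soil surface. Plants grew in a greenhouse at 25° C. to 30° C., and the effect was scored three weeks after application using criteria from an earlier test.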

[2] = test system: barnyard grass; assay: Test Example 5: herbicidal effect by foliage application, plastic box (Table 20, symbol H); type: in vivo, barnyard grass (Echinochloa crus-galli); conditions: foliage application; for effect on barnyard grass (H): 320 g/ha, 3 weeks after application; for H: barnyard grass, herbicidal effect (criteria 0-5): AAH 320 g/ha, evaluated three weeks after application
In short: (§2)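 Plants sown in sterilized diluvial soil and grown 14 days in a greenhouse at 25° C to 30° C, then sprayed on the foliage with the compound's emulsion diluted in water to a predetermined herbicide amount. Injury to weeds and crops scored three weeks after application on a visual rating scale.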

[3] = test system: late watergrass; assay: Test Example 2: herbicidal activity, application during weed generation under submerged conditions (Table 17, symbol A); type: in vivo, late watergrass (Echinochloa oryzicola); conditions: AAH 320 g/ha; application during weed generation, submerged conditions
In short: (§3)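 Mixed weed seedlings in alluvial soil under a 4 cm water layer, greenhouse-grown at 25–30° C. Compound given as a diluted emulsion into the floodwater at the 1–2 leaf stage; response graded after three weeks.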

[4] = test system: velvetleaf; assay: Test Example 4: herbicidal effect by soil treatment (Table 19, symbol M); type: in vivo, velvetleaf (Abutilon theophrasti); conditions: for herbicidal effect on M: velvetleaf: amount of applied herbicide 320 g/ha
In short: as §1

[5] = test system: Japanese bulrush; assay: Test Example 2: herbicidal activity, application during weed generation under submerged conditions (Table 17, symbol B); type: in vivo, Japanese bulrush (Schoenoplectus juncoides); conditions: AAH 320 g/ha; application during weed generation, submerged conditions
In short: as §3

[6] = test system: windgrass; assay: Test Example 5: herbicidal effect by foliage application, plastic box (Table 20, symbol L); type: in vivo, windgrass (Apera spica-venti); conditions: foliage application; for effect on windgrass (L): 320 g/ha, 3 weeks after application; for L: windgrass, herbicidal effect (criteria 0-5): AAH 320 g/ha, evaluated three weeks after application
In short: as §2

[7] = test system: barnyard grass; assay: Test Example 4: herbicidal effect by soil treatment (Table 19, symbol H); type: in vivo, barnyard grass (Echinochloa crus-galli); conditions: for herbicidal effect on H: barnyard grass: amount of applied herbicide 320 g/ha
In short: as §1

[8] = test system: green foxtail; assay: Test Example 4: herbicidal effect by soil treatment (Table 19, symbol G); type: in vivo, green foxtail (Setaria viridis); conditions: for herbicidal effect on G: green foxtail: amount of applied herbicide 320 g/ha
In short: as §1

[9] = test system: persian speedwell; assay: Test Example 5: herbicidal effect by foliage application, plastic box (Table 20, symbol R); type: in vivo, Persian speedwell (Veronica persica); conditions: foliage application; for effect on persian speedwell (R): 320 g/ha, 3 weeks after application; for R: persian speedwell, herbicidal effect (criteria 0-5): AAH 320 g/ha, evaluated three weeks after application
In short: as §2

[10] = test system: wild oat; assay: Test Example 4: herbicidal effect by soil treatment (Table 19, symbol I); type: in vivo, wild oat (Avena fatua); conditions: for herbicidal effect on I: wild oat: amount of applied herbicide 320 g/ha
In short: as §1

[11] = test system: southern crabgrass; assay: Test Example 4: herbicidal effect by soil treatment (Table 19, symbol F); type: in vivo, southern crabgrass (Digitaria ciliaris); conditions: for herbicidal effect on F: southern crabgrass: amount of applied herbicide 320 g/ha
In short: as §1

[12] = test system: redroot pigweed; assay: Test Example 4: herbicidal effect by soil treatment (Table 19, symbol N); type: in vivo, redroot pigweed (Amaranthus retroflexus); conditions: for herbicidal effect on N: redroot pigweed: amount of applied herbicide 320 g/ha
In short: as §1

[13] = test system: oval-leafed pondweed; assay: Test Example 2: herbicidal activity, application during weed generation under submerged conditions (Table 17, symbol C); type: in vivo, oval-leafed pondweed (Monochoria vaginalis); conditions: AAH 320 g/ha; application during weed generation, submerged conditions
In short: as §3

[14] = test system: persian speedwell; assay: Test Example 4: herbicidal effect by soil treatment (Table 19, symbol R); type: in vivo, Persian speedwell (Veronica persica); conditions: for herbicidal effect on R: persian speedwell: amount of applied herbicide 320 g/ha
In short: as §1

[15] = test system: chickweed; assay: Test Example 5: herbicidal effect by foliage application, plastic box (Table 20, symbol P); type: in vivo, common chickweed (Stellaria media); conditions: foliage application, AAH 320 g/ha, evaluated three weeks after application
In short: as §2

[16] = test system: redroot pigweed; assay: Test Example 5: herbicidal effect by foliage application, plastic box (Table 20, symbol N); type: in vivo, redroot pigweed (Amaranthus retroflexus); conditions: foliage application, AAH 320 g/ha, evaluated three weeks after application
In short: as §2

Row | Structure (SMILES) | effect on barnyard grass (H) [2] | herbicidal effect rating, A: late watergrass [3] | herbicidal effect rating, B: Japanese bulrush [5] | effect on windgrass (L) [6] | effect on persian speedwell (R) [9] | herbicidal effect rating, C: oval-leafed pondweed [13] | H: barnyard grass, herbicidal effect (criteria 0-5) [2] | herbicidal effect on M: velvetleaf [4] | herbicidal effect on R: persian speedwell [14] | L: windgrass, herbicidal effect (criteria 0-5) [6] | herbicidal effect on H: barnyard grass [7] | herbicidal effect on G: green foxtail [8] | R: persian speedwell, herbicidal effect (criteria 0-5) [9] | herbicidal effect on I: wild oat [10] | P: chickweed, herbicidal effect (criteria 0-5) [15] | herbicidal effect on F: southern crabgrass [11] | N: redroot pigweed, herbicidal effect (criteria 0-5) [16] | herbicidal effect on N: redroot pigweed [12] | herbicidal effect on J: blackgrass [1] | other results
1 | Cc1nn(C)c(=O)c(-c2c(-c3ccccc3OC(F)(F)F)sc3ccc(F)cc23)c1O [2-043] | 4 (Herbicidal rate of 70% or more and less than 90%) | 0 (Herbicidal rate of 5% or less (almost no effect)) | 2 (Herbicidal rate of 20% or more and less than 40%) | 3 (Herbicidal rate of 40% or more and less than 70%) | 5 (Herbicidal rate of 90% or more (almost completely withered)) | 0 (Herbicidal rate of 5% or less (almost no effect)) |  |  |  |  |  |  |  |  |  |  |  |  |  | herbicidal effect rating, J: blackgrass ([1]; 320 g/ha): 0 (Herbicidal rate of 5% or less (almost no effect)); herbicidal effect rating, M: velvetleaf ([4]; 320 g/ha): 3 (Herbicidal rate of 40% or more and less than 70%); herbicidal effect rating, H: barnyard grass ([7]; 320 g/ha): 4 (Herbicidal rate of 70% or more and less than 90%); herbicidal effect rating, G: green foxtail ([8]; 320 g/ha): 5 (Herbicidal rate of 90% or more (almost completely withered)); herbicidal effect rating, I: wild oat ([10]; 320 g/ha): 0 (Herbicidal rate of 5% or less (almost no effect)); herbicidal effect rating, F: southern crabgrass ([11]; 320 g/ha): 5 (Herbicidal rate of 90% or more (almost completely withered)); herbicidal effect rating, N: redroot pigweed ([12]; 320 g/ha): 5 (Herbicidal rate of 90% or more (almost completely withered))
2 | C=C(C)C(=O)Oc1c(C)nn(C)c(=O)c1-c1c(-c2ccc(OC(F)F)cc2)sc2ccc(F)cc12 [2-281] |  | 5 (Herbicidal rate of 90% or more (almost completely withered)) | 4 (Herbicidal rate of 70% or more and less than 90%) |  |  | 5 (Herbicidal rate of 90% or more (almost completely withered)) | 5 (Herbicidal rate of 90% or more (almost completely withered)) | 4 (Herbicidal rate of 70% or more and less than 90%) | 5 (Herbicidal rate of 90% or more (almost completely withered)) | 5 (Herbicidal rate of 90% or more (almost completely withered)) | 4 (Herbicidal rate of 70% or more and less than 90%) | 4 (Herbicidal rate of 70% or more and less than 90%) | 5 (Herbicidal rate of 90% or more (almost completely withered)) | 0 (Herbicidal rate of 5% or less (almost no effect)) | 5 (Herbicidal rate of 90% or more (almost completely withered)) | 3 (Herbicidal rate of 40% or more and less than 70%) | 5 (Herbicidal rate of 90% or more (almost completely withered)) | 5 (Herbicidal rate of 90% or more (almost completely withered)) |  | 
3 | COCCOCOc1c(C)nn(C)c(=O)c1-c1c(-c2ccc(OCCC3OCCO3)cc2)sc2ccccc12 [1-224] | 5 (Herbicidal rate of 90% or more (almost completely withered)) | 3 (Herbicidal rate of 40% or more and less than 70%) | 3 (Herbicidal rate of 40% or more and less than 70%) | 0 (Herbicidal rate of 5% or less (almost no effect)) | 5 (Herbicidal rate of 90% or more (almost completely withered)) |  |  |  |  |  |  |  |  |  |  |  |  |  |  | J: blackgrass, herbicidal effect rating ([1]; AAH 320 g/ha): 0 (Herbicidal rate of 5% or less (almost no effect)); M: velvetleaf, herbicidal effect rating ([4]; AAH 320 g/ha): 5 (Herbicidal rate of 90% or more (almost completely withered)); R: persian speedwell, herbicidal effect rating ([14]; AAH 320 g/ha): 3 (Herbicidal rate of 40% or more and less than 70%); H: barnyard grass, herbicidal effect rating ([7]; AAH 320 g/ha): 1 (Herbicidal rate of 5% or more and less than 20%); G: green foxtail, herbicidal effect rating ([8]; AAH 320 g/ha): 3 (Herbicidal rate of 40% or more and less than 70%); I: wild oat, herbicidal effect rating ([10]; AAH 320 g/ha): 0 (Herbicidal rate of 5% or less (almost no effect)); F: southern crabgrass, herbicidal effect rating ([11]; AAH 320 g/ha): 2 (Herbicidal rate of 20% or more and less than 40%); N: redroot pigweed, herbicidal effect rating ([12]; AAH 320 g/ha): 4 (Herbicidal rate of 70% or more and less than 90%)
4 | Cc1nn(C)c(=O)c(-c2c(-c3ccc(OC(F)F)cc3)sc3ccc(F)cc23)c1OC(=O)C1CCCC1 [2-280] |  | 4 (Herbicidal rate of 70% or more and less than 90%) | 3 (Herbicidal rate of 40% or more and less than 70%) |  |  |  | 5 (Herbicidal rate of 90% or more (almost completely withered)) | 3 (Herbicidal rate of 40% or more and less than 70%) | 4 (Herbicidal rate of 70% or more and less than 90%) | 3 (Herbicidal rate of 40% or more and less than 70%) | 3 (Herbicidal rate of 40% or more and less than 70%) | 2 (Herbicidal rate of 20% or more and less than 40%) | 5 (Herbicidal rate of 90% or more (almost completely withered)) | 0 (Herbicidal rate of 5% or less (almost no effect)) | 5 (Herbicidal rate of 90% or more (almost completely withered)) | 0 (Herbicidal rate of 5% or less (almost no effect)) | 5 (Herbicidal rate of 90% or more (almost completely withered)) | 5 (Herbicidal rate of 90% or more (almost completely withered)) | 1 (Herbicidal rate of 5% or more and less than 20%) | 
5 | C=CCSCc1ccc(-c2sc3ccc(F)cc3c2-c2c(O)c(C)nn(C)c2=O)cc1 [2-323] |  | 3 (Herbicidal rate of 40% or more and less than 70%) | 0 (Herbicidal rate of 5% or less (almost no effect)) |  |  | 0 (Herbicidal rate of 5% or less (almost no effect)) | 4 (Herbicidal rate of 70% or more and less than 90%) | 1 (Herbicidal rate of 5% or more and less than 20%) |  | 5 (Herbicidal rate of 90% or more (almost completely withered)) | 0 (Herbicidal rate of 5% or less (almost no effect)) | 3 (Herbicidal rate of 40% or more and less than 70%) | 5 (Herbicidal rate of 90% or more (almost completely withered)) | 0 (Herbicidal rate of 5% or less (almost no effect)) | 5 (Herbicidal rate of 90% or more (almost completely withered)) | 1 (Herbicidal rate of 5% or more and less than 20%) | 5 (Herbicidal rate of 90% or more (almost completely withered)) | 5 (Herbicidal rate of 90% or more (almost completely withered)) | 0 (Herbicidal rate of 5% or less (almost no effect)) | 
